Structures are written as SMILES.

Results on six compounds are retold here after patent publication US20010054579A1, “METHOD OF SEPARATING DIFFERENT CHEMICALS IN A SAMPLE” (priority 1997, published 2001).

Common to all, as to assay type: physicochemical
The nature of data set [1]: Reversed-phase liquid chromatography retention factor (log k) on propyl-phenyl bonded phase. The conditions noted are these: C3Ph column; for log k in 80% CH3CN, C3Ph: aqueous 80% acetonitrile at 40° C. The text has this: (§1) The inertness and the chemical stability of the synthesized hexyl-phenyl bonded silica gel were studied by looking at the retention factors and peak shapes of pyridine, benzoic acid, 8-hydroxyquinoline, and naphthalene disclosed in T. Hanai, Encyclopedia of Analytical Science (1995), Academic Press, London, p. […] which is hereby incorporated herein by reference. The retention factor, in terms of measured parameters, is “k=(tR−tO)/tO”: where tR is retention time of the measured peak; and to is retention time of non-retained component.
(§2) The retention capacities of alkyl-phenyl bonded silica gels were compared from the retention factors for alkylbenzenes and polycyclic aromatic hydrocarbons (PAH).
(§3) […] The log k values were used for the analysis of hydrophobicity of bonded phases using van der Waals volumes of analytes as the standard.
(§4) The liquid chromatograph was a model HP1090 from Hewlett-Packard (Palo Alto, Calif. USA), and the chemically-bonded silica gel columns, —C18, —C8 and —C5, —C6Ph, —C3Ph, 15 cm×4.6 mm I.D., were from Phenomenex Inc. (Torrance, Calif. USA). Chemicals used were from Aldrich and ChemService. HPLC grade acetonitrile and water were from Fisher Scientific (Tustin, Calif. USA).

A short description of data set [2]: Reversed-phase liquid chromatography retention factor (log k) on octyl bonded phase. The conditions noted are these: C8 column; for log k in 80% CH3CN, C8: aqueous 80% acetonitrile at 40° C.
Text: as §1, §2, §3, §4

A short description of data set [3]: Reversed-phase liquid chromatography retention factor (log k) on hexyl-phenyl bonded phase. The conditions noted are these: C6Ph column; for log k in 80% CH3CN, C6Ph: aqueous 80% acetonitrile at 40° C.
Text: as §1, §2, §3, §4

A short description of data set [4]: Reversed-phase liquid chromatography retention factor (log k) on pentyl bonded phase. The conditions noted are these: C5 column; for log k in 80% CH3CN, C5: aqueous 80% acetonitrile at 40° C.
Text: as §1, §2, §3, §4

The nature of data set [5]: Reversed-phase liquid chromatography retention factor (log k) on octadecyl bonded phase. The conditions noted are these: C18 column; for log k in 80% CH3CN, C18: aqueous 80% acetonitrile at 40° C.
Text: as §1, §2, §3, §4

Take `CCCCCCCCCc1ccccc1` [Nonylbenzene]: in data set [1], the “log k in 70% CH3CN, C3Ph” value stood at 1.046 and the “log k in 80% CH3CN, C3Ph” value came out at 0.668. For the same compound, in data set [2], the “log k in 70% CH3CN, C8” value is 1.457 and the “log k in 80% CH3CN, C8” value worked out at 1.193. Besides, in data set [3], the “log k in 70% CH3CN, C6Ph” value is 1.204 and the “log k in 80% CH3CN, C6Ph” value turned out to be 0.849. In addition, in data set [4], the “log k in 70% CH3CN, C5” value is on record as 1.271 and the “log k in 80% CH3CN, C5” value amounted to 1.022. Also, the “log k in 80% CH3CN, C18” value in data set [5] was found to be 1.528.

With `CCCCCCCCc1ccccc1` [Octylbenzene], in data set [1], the “log k in 70% CH3CN, C3Ph” value amounted to 0.947 and the “log k in 80% CH3CN, C3Ph” value worked out at 0.589. Besides, in data set [2], the “log k in 70% CH3CN, C8” value was determined as 1.318 and the “log k in 80% CH3CN, C8” value turned out to be 1.063. For the same compound, in data set [3], the “log k in 70% CH3CN, C6Ph” value came out at 1.095 and the “log k in 80% CH3CN, C6Ph” value was 0.757. In addition, in data set [4], the “log k in 70% CH3CN, C5” value is listed as 1.144 and the “log k in 80% CH3CN, C5” value came out at 0.906. Also, in data set [5], the “log k in 70% CH3CN, C18” value came to 1.673 and the “log k in 80% CH3CN, C18” value amounted to 1.356.

`CCCCCc1ccccc1` [Pentylbenzene]: in data set [1], the “log k in 70% CH3CN, C3Ph” value is recorded as 0.646 and the “log k in 80% CH3CN, C3Ph” value is listed as 0.350. Besides, in data set [2], the “log k in 70% CH3CN, C8” value turned out to be 0.908 and the “log k in 80% CH3CN, C8” value is 0.680. In data set [3], the “log k in 70% CH3CN, C6Ph” value is listed as 0.758 and the “log k in 80% CH3CN, C6Ph” value was found to be 0.480. In addition, in data set [4], the “log k in 70% CH3CN, C5” value worked out at 0.772 and the “log k in 80% CH3CN, C5” value was found to be 0.567. In data set [5], the “log k in 70% CH3CN, C18” value is on record as 1.134 and the “log k in 80% CH3CN, C18” value is 0.858.

Take `c1ccc2c(c1)ccc1ccccc12` [Phenanthrene]: the “log k in 70% CH3CN, C3Ph” value in data set [1] came to 0.468. For the same compound, the “log k in 70% CH3CN, C8” value in data set [2] is 0.660. For the same compound, the “log k in 70% CH3CN, C6Ph” value in data set [3] is reported as 0.655. The “log k in 70% CH3CN, C5” value in data set [4] came to 0.538. Also, the “log k in 70% CH3CN, C18” value in data set [5] is 0.854.

`CCCc1ccccc1` [Propylbenzene]: in data set [1], the “log k in 70% CH3CN, C3Ph” value amounted to 0.449 and the “log k in 80% CH3CN, C3Ph” value turned out to be 0.196. Also, in data set [2], the “log k in 70% CH3CN, C8” value amounted to 0.644 and the “log k in 80% CH3CN, C8” value stood at 0.442. Further, in data set [3], the “log k in 70% CH3CN, C6Ph” value is listed as 0.538 and the “log k in 80% CH3CN, C6Ph” value is 0.303. In data set [4], the “log k in 70% CH3CN, C5” value was 0.537 and the “log k in 80% CH3CN, C5” value is on record as 0.362. Also, in data set [5], the “log k in 70% CH3CN, C18” value is on record as 0.800 and the “log k in 80% CH3CN, C18” value was determined as 0.548.

Regarding `c1cc2ccc3cccc4ccc(c1)c2c34` [Pyrene], in data set [1], the “log k in 70% CH3CN, C3Ph” value was found to be 0.553. Further, the “log k in 70% CH3CN, C8” value in data set [2] amounted to 0.777. Moreover, in data set [3], the “log k in 70% CH3CN, C6Ph” value came to 0.778. Besides, in data set [4], the “log k in 70% CH3CN, C5” value is listed as 0.614. Further, the “log k in 70% CH3CN, C18” value in data set [5] came out at 1.038.
